Values after ≈ are worked out from the molar mass of the structure shown.
Tests used:
Format in all cases: functional, cell-based
A549 = assay: Cytotoxicity against human A549 cells after 48 hrs by MTT assay
[1] = Cytotoxicity against human TW03 cells after 48 hrs by MTT assay
B16-F10 = assay: Cytotoxicity against mouse B16F10 cells after 48 hrs by MTT assay
[2] = Cytotoxicity against human HEP7402 cells after 48 hrs by MTT assay
[3] = Homo sapiens, A549, 48 h, read-out: IC50
[4] = Homo sapiens, TW03, 48 h, read-out: IC50
[5] = Mus musculus, B16-F10, 48 h, read-out: IC50
[6] = Homo sapiens, 48 h, read-out: IC50

Row | SMILES | IC50 (A549; [3]) [µg/mL] | IC50 [1, 4] [µg/mL] | IC50 (B16-F10; [5]) [µg/mL] | IC50 [2, 6] [µg/mL] | IC50 ([1]; tw03) | IC50 (B16-F10; b16-f10) | IC50 [2] | IC50 (A549; a549)
1 | COc1cc(/C=C2\CC[C@@H]3[C@H]4CCCN5CCC[C@@H](CN3C2=O)[C@@H]45)cc(OC)c1OC | 3.8 (≈ 8.91 µM) | 5.5 (≈ 12.9 µM) | 9.8 (≈ 23 µM) | 7.8 (≈ 18.3 µM) | – | – | – | –
2 | O=C(c1ccco1)C1CC[C@@H]2[C@H]3CCCN4CCC[C@@H](CN2C1=O)[C@@H]34 (stereo partly drawn) | 6.6 (≈ 19.3 µM) | 4.9 (≈ 14.3 µM) | 12.9 (≈ 37.7 µM) | 11.8 (≈ 34.5 µM) | – | – | – | –
3 | COC(=O)CCCC1NCC2CCCN3CCCC1C23 (stereo not drawn) | 31.4 (≈ 112 µM) | – | – | – | Not Active | Not Active | Not Active | –
4 | O=C1/C(=C/c2cccc(F)c2)CC[C@@H]2[C@H]3CCCN4CCC[C@@H](CN12)[C@@H]34 | 3.4 (≈ 9.59 µM) | 2.2 (≈ 6.21 µM) | 2.7 (≈ 7.62 µM) | 1.5 (≈ 4.23 µM) | – | – | – | –
5 | COc1cccc(/C=C2\CC[C@@H]3[C@H]4CCCN5CCC[C@@H](CN3C2=O)[C@@H]45)c1 | 2.3 (≈ 6.28 µM) | 6.4 (≈ 17.5 µM) | 8.7 (≈ 23.7 µM) | 3.4 (≈ 9.28 µM) | – | – | – | –
6 | O=C1/C(=C/c2ccncc2)CC[C@@H]2[C@H]3CCCN4CCC[C@@H](CN12)[C@@H]34 | 5.7 (≈ 16.9 µM) | 4.4 (≈ 13 µM) | 6.2 (≈ 18.4 µM) | 8.6 (≈ 25.5 µM) | – | – | – | –
7 | O=C1/C(=C/c2ccc(Cl)cc2)CC[C@@H]2[C@H]3CCCN4CCC[C@@H](CN12)[C@@H]34 | 2.6 (≈ 7.01 µM) | 2.8 (≈ 7.55 µM) | 3.9 (≈ 10.5 µM) | 1.6 (≈ 4.31 µM) | – | – | – | –
8 | O=C(O)CCCC1NCC2CCCN3CCCC1C23 (stereo not drawn) | – | – | – | – | Not Active | Not Active | Not Active | Not Active
9 | O=C1/C(=C/c2cccc([N+](=O)[O-])c2)CC[C@@H]2[C@H]3CCCN4CCC[C@@H](CN12)[C@@H]34 | 7.6 (≈ 19.9 µM) | 2.4 (≈ 6.29 µM) | 8.5 (≈ 22.3 µM) | 5.3 (≈ 13.9 µM) | – | – | – | –
10 | O=C1/C(=C/c2ccc([N+](=O)[O-])cc2)CC[C@@H]2[C@H]3CCCN4CCC[C@@H](CN12)[C@@H]34 | 6.2 (≈ 16.3 µM) | 3.7 (≈ 9.7 µM) | 2.8 (≈ 7.34 µM) | 8.7 (≈ 22.8 µM) | – | – | – | –
11 | NC(=O)CCCC1NCC2CCCN3CCCC1C23 (stereo not drawn) | 18.6 (≈ 70.1 µM) | 21.7 (≈ 81.8 µM) | 12.9 (≈ 48.6 µM) | 11.4 (≈ 43 µM) | – | – | – | –
12 | CCOC(=O)CCCC1NCC2CCCN3CCCC1C23 (stereo not drawn) | 32.3 (≈ 110 µM) | – | – | – | Not Active | Not Active | Not Active | –
13 | O=C1/C(=C/c2ccc(F)cc2)CC[C@@H]2[C@H]3CCCN4CCC[C@@H](CN12)[C@@H]34 | 3 (≈ 8.46 µM) | 1.9 (≈ 5.36 µM) | 2.5 (≈ 7.05 µM) | 1.8 (≈ 5.08 µM) | – | – | – | –
14 | O=C(c1ccccc1)C1CC[C@@H]2[C@H]3CCCN4CCC[C@@H](CN2C1=O)[C@@H]34 (stereo partly drawn) | 3.6 (≈ 10.2 µM) | 2.4 (≈ 6.81 µM) | 10.6 (≈ 30.1 µM) | 4.3 (≈ 12.2 µM) | – | – | – | –
15 | COc1ccc(/C=C2\CC[C@@H]3[C@H]4CCCN5CCC[C@@H](CN3C2=O)[C@@H]45)cc1 | 0.6 (≈ 1.64 µM) | 1.2 (≈ 3.27 µM) | 0.8 (≈ 2.18 µM) | 0.5 (≈ 1.36 µM) | – | – | – | –
16 | O=C(c1cccs1)C1CC[C@@H]2[C@H]3CCCN4CCC[C@@H](CN2C1=O)[C@@H]34 (stereo partly drawn) | 2.3 (≈ 6.42 µM) | 8.1 (≈ 22.6 µM) | 4.5 (≈ 12.6 µM) | 7.5 (≈ 20.9 µM) | – | – | – | –
17 | O=C1/C(=C/c2ccccc2)CC[C@@H]2[C@H]3CCCN4CCC[C@@H](CN12)[C@@H]34 | 4.6 (≈ 13.7 µM) | 2.4 (≈ 7.13 µM) | 5.7 (≈ 16.9 µM) | 10 (≈ 29.7 µM) | – | – | – | –
18 | O=C1CCC[C@@H]2[C@H]3CCCN4CCC[C@@H](CN12)[C@@H]34 [MATRINE] | 9.7 (≈ 39.1 µM) | 16.3 (≈ 65.6 µM) | 17 (≈ 68.4 µM) | 15.3 (≈ 61.6 µM) | – | – | – | –
19 | COc1cc2c(c(OC)c1OC)-c1ccc(OC)c(=O)cc1[C@@H](NC(C)=O)CC2 [COLCHICINE] | 0.2 (≈ 0.501 µM) | 1.3 (≈ 3.25 µM) | 0.8 (≈ 2 µM) | 0.4 (≈ 1 µM) | – | – | – | –
20 | O=C1/C(=C/c2ccc(Br)cc2)CC[C@@H]2[C@H]3CCCN4CCC[C@@H](CN12)[C@@H]34 | 1.9 (≈ 4.57 µM) | 3.2 (≈ 7.7 µM) | 2.6 (≈ 6.26 µM) | 0.7 (≈ 1.69 µM) | – | – | – | –
21 | O=C1/C(=C/c2ccc(Cl)c(Cl)c2)CC[C@@H]2[C@H]3CCCN4CCC[C@@H](CN12)[C@@H]34 | 4.7 (≈ 11.6 µM) | 6.3 (≈ 15.5 µM) | 6.5 (≈ 16 µM) | 11.3 (≈ 27.9 µM) | – | – | – | –
22 | C1CCN2C[C@@H]3CCCN4CCC[C@@H]([C@H]34)[C@H]2C1 | – | – | – | – | Not Active | Not Active | Not Active | Not Active

Reference: ChEMBL document CHEMBL2029241, “Synthesis, characterization and in vitro anti-tumor activities of matrine derivatives” (Bioorg Med Chem Lett, 2012)
